This note sets out measurements from patent US11345713B2, “Compounds as modulators of TLR2 signaling” (Neuropore Therapies, inc., priority 2018, dated 2022).

The target in test [1] is T1, human TLR2 (Pam3CSK4, TLR1/2 agonist) in HEK-Blue hTLR2 cells (Homo sapiens, UniProt O60603).
T1 construct: host or cells: HEK-Blue hTLR2 (HEK-293)
The experiment in a line: HEK-Blue hTLR2 antagonism assay (SEAP reporter) with Pam3CSK4 as agonist. Type of test: cell-based. As to conditions: 2 h compound pre-incubation, approx. 3×EC50 Pam3CSK4, 18 h, SEAP OD 655 nm, background subtracted. The method, then:
(§1) Synthetic diacylated lipoprotein (Pam2CSK4, TLR2/6 agonist) and synthetic triacylated lipoprotein (Pam3CSK4, TLR1/2 agonist) were obtained from InvivoGen and were dissolved in endotoxin-free water to a concentration 1 mg/mL, vortexed until complete solubilization, and stored in aliquots at −20° C. Prior to addition to cells, an aliquot of the dissolved ligand was vortexed shortly and then was diluted in medium to 25 ng/mL Pam2CSK4 or 1000 ng/mL Pam3CSK4. The EC50 of the agonists for each assay run was determined by using 3-fold dilutions of each agonist from the following starting concentrations: 5 ng/mL for Pam2CSK4, and 200 ng/mL for Pam3CSK4.
(§2) Test compounds were solubilized fresh to 10-20 mM stocks in DMSO and sonicated for 5-10 minutes in a water bath sonicator. Serial dilutions were prepared in DMSO, and then diluted in medium. The final concentration of DMSO used in the assay was 1%.
(§3) HEK-Blue hTLR2 reporter cells (InvivoGen) are HEK-293 cells stably expressing both the human TLR2 gene and a secreted embryonic alkaline phosphatase (SEAP) reporter construct downstream of NFκB promotor sites. HEK-Blue hTLR2 reporters were cultured according to manufacturer's protocol using Dulbecco's Modified Eagle Medium (DMEM; Gibco) containing 1× GlutaMax (Gibco), 10% heat-inactivated Fetal Bovine Serum (Gibco), Pen-Strep (50 U/mL penicillin, 50 μg/mL streptomycin, Gibco), 100 μg/mL Normocin (InvivoGen), and the selective antibiotic, 1× HEK-Blue Selection (InvivoGen). Quanti-Blue reagent (InvivoGen) for detection and quantification of secreted alkaline phosphatase was dissolved in 100 mL of endotoxin-free water, warmed to 37° C. for 30 minutes and then filtered using a 0.2 μm membrane.
(§4) On day 1, 50 μL of each test compound dilution in duplicates or a vehicle control was added to each well of a 96-well plate followed by addition of 150 μL of HEK-Blue hTLR2 cell suspension (1×10^5 cells/well) and incubated at 37° C./5% CO2 for 2 h. Next, 50 μL of an approximate 3×EC50 concentration of each agonist (Pam2CSK4 or Pam3CSK4) was added to the wells containing test compounds or the vehicle control. The plates were then incubated at 37° C./5% CO2 for 18 h. For each assay run, non-treated HEK-Blue hTLR2 cells were treated with serial dilutions of agonists to determine EC50 values for the respective run.
(§5) On day 2, secreted alkaline phosphatase (SEAP) activity was detected in cell culture supernatants. In brief, 20 μL was collected from each well and transferred to a 96-well plate. Next, 200 μL of Quanti-Blue detection reagent was added to each well. Plates were incubated at room temperature for 15 min and SEAP activity was assessed by spectrophotometer OD reading at 655 nm. […] The activities of the compounds against Pam2CSK4 and Pam3CSK4 are presented as IC50 values for the response from cells treated with agonists with the background signal subtracted.

In test [2] the target is T2, human TLR2 (Pam2CSK4, TLR2/6 agonist) in HEK-Blue hTLR2 cells (Homo sapiens, UniProt O60603).
T2 construct: host or cells: HEK-Blue hTLR2 (HEK-293)
T2 sequence (O60603 19-784 limits assumed): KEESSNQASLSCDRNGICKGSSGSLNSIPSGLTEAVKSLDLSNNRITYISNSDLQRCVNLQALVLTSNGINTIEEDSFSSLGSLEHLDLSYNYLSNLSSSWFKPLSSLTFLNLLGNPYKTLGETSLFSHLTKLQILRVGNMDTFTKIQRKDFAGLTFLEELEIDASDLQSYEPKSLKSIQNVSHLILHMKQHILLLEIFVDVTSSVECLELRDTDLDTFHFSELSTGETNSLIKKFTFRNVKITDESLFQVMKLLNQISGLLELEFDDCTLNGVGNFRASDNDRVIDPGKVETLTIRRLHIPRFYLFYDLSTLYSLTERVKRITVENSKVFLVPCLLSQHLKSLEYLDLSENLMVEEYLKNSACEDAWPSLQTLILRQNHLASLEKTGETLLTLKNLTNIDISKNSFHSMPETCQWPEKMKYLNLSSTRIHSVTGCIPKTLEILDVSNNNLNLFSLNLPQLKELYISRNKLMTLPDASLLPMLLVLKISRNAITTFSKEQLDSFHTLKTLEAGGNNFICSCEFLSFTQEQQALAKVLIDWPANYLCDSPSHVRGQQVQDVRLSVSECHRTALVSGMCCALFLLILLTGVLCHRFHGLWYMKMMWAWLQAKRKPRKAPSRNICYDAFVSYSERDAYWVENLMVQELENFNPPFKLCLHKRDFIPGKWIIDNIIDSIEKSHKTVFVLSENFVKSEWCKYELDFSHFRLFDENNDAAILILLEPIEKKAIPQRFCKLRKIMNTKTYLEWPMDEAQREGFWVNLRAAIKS
The experiment in a line: HEK-Blue hTLR2 antagonism assay (SEAP reporter) with Pam2CSK4 as agonist. In kind it is cell-based. Conditions: 2 h compound pre-incubation, approx. 3×EC50 Pam2CSK4, 18 h, SEAP OD 655 nm, background subtracted. The method, then:
as §1, §2, §3, §4, §5

T1 sequence (O60603 19-784 limits assumed): as above

In the case of `O=Cc1cc(/C=C/c2ccc(N3CCCC3)cc2)cc(F)c1O` [Example 49a, (E)-3-fluoro-2-hydroxy-5-(4-(pyrrolidin-1-yl)styryl)benzaldehyde], the values for the IC50 in test [1] and in test [2] were 0.6 µM and 0.5 µM, respectively.
Consider `COc1cc(/C=C/c2cccc(C(F)(F)F)c2)cc(C=O)c1O` [compound 2, (E)-2-hydroxy-3-methoxy-5-(3-(trifluoromethyl)styryl)benzaldehyde], for which the IC50 (as a rule, the midpoint of a concentration-inhibition curve) in test [1] came out at 1.4 µM; in test [2], 5.3 µM.
In the same order, the values of `CN1CCCc2cc(/C=C/c3cc(F)c(O)c(C=O)c3)ccc21` [compound 62, (E)-3-fluoro-2-hydroxy-5-(2-(1-methyl-1,2,3,4-tetrahydroquinolin-6-yl)vinyl)benzaldehyde] are 0.8 µM and 1.5 µM.
As to `COc1cc(/C=C/c2ccc(C)nc2)cc(C=O)c1O` [compound 26, (E)-2-hydroxy-3-methoxy-5-(2-(6-methylpyridin-3-yl)vinyl)benzaldehyde], the IC50 in test [1] turned out to be 9.3 µM; in test [2], 7.4 µM.
Taken in the same sequence, the figures for `COc1cc(/C=C/c2ccc(-n3cccn3)cc2)cc(C=O)c1O` [compound 56, (E)-5-(4-(1H-pyrazol-1-yl)styryl)-2-hydroxy-3-methoxybenzaldehyde] were 1.7 µM and 1.8 µM.
Regarding `O=Cc1cc(/C=C/c2ccc(N3CCCCC3)cc2)cc(F)c1O` [compound 70, (E)-3-fluoro-2-hydroxy-5-(4-(piperidin-1-yl)styryl)benzaldehyde], the IC50 in test [1] is 0.4 µM; in test [2], 0.9 µM.
In the same order, the values of `COc1cc(/C=C/c2cc(C=O)c(O)c(OC)c2)ccc1O` [compound 34, (E)-2-hydroxy-5-(4-hydroxy-3-methoxystyryl)-3-methoxybenzaldehyde] are 7.5 µM and 9.7 µM.
Taken in the same sequence, the figures for `O=Cc1cc(/C=C/c2ccc(N3CCCC3)cn2)cc(F)c1O` [compound 87, (E)-3-fluoro-2-hydroxy-5-(2-(5-(pyrrolidin-1-yl)pyridin-2-yl)vinyl)benzaldehyde] were 3.3 µM and 3.9 µM.
Taken in the same sequence, the figures for `CC(=O)N1CCc2sc(-c3cc(F)c(O)c(C=O)c3)cc2C1` [compound 19, 5-(5-acetyl-4,5,6,7-tetrahydrothieno[3,2-c]pyridin-2-yl)-3-fluoro-2-hydroxybenzaldehyde] were 38.1 µM and 26.7 µM.
Regarding `COc1cc(-c2cc3c(s2)CCN(C(C)=O)C3)cc(C=O)c1O` [compound 15, 5-(5-acetyl-4,5,6,7-tetrahydrothieno[3,2-c]pyridin-2-yl)-2-hydroxy-3-methoxybenzaldehyde], the IC50 came out at 12.6 µM in test [1] and 14.7 µM in test [2].
For the molecule `COc1cc(-c2cc3c(s2)CCN(C(=O)OC(C)(C)C)C3)cc(C=O)c1O` [compound 12, tert-butyl 2-(3-formyl-4-hydroxy-5-methoxyphenyl)-6,7-dihydrothieno[3,2-c]pyridine-5(4H)-carboxylate], the results for the IC50 in test [1] and in test [2] were 1.3 µM and 1.4 µM, respectively.
Taken in the same sequence, the figures for `COc1cc(/C=C\c2ccc(N3CCCC3)cc2)cc(C=O)c1O` [compound 51, (Z)-2-hydroxy-3-methoxy-5-(4-(pyrrolidin-1-yl)styryl)benzaldehyde] were 70.1 µM and 71.3 µM.
As for `Oc1c(F)cc(/C=C/c2ccc(N3CCCC3)cc2)cc1CNC1CC1` [compound 91, (E)-2-((cyclopropylamino)methyl)-6-fluoro-4-(4-(pyrrolidin-1-yl)styryl)phenol], the results for the half-maximal inhibitory concentration (IC50) in test [1] and in test [2] were 82.1 µM and 30.6 µM, respectively.
In the same order, the values of `CN1CCc2sc(-c3cc(F)c(O)c(C=O)c3)cc2C1` [compound 18, 3-fluoro-2-hydroxy-5-(5-methyl-4,5,6,7-tetrahydrothieno[3,2-c]pyridin-2-yl)benzaldehyde] are 12.2 µM and 10.4 µM.
As to `CCN(CC)c1ccc(/C=C/c2cc(C=O)c(O)c(OC)c2)cc1` [compound 63, (E)-5-(4-(diethylamino)styryl)-2-hydroxy-3-methoxybenzaldehyde], the IC50 in test [1] turned out to be 0.6 µM; in test [2], 1.5 µM.
Taken in the same sequence, the figures for `COc1ccc(/C=C/c2cc(C=O)c(O)c(OC)c2)cc1` [compound 1, (E)-2-hydroxy-3-methoxy-5-(4-methoxystyryl)benzaldehyde] were 1.7 µM and 3.2 µM.
Taken in the same sequence, the figures for `COc1cc(/C=C/c2ccc3c(c2)CCCN3C(=O)OC(C)(C)C)cc(C=O)c1O` [compound 60, tert-butyl (E)-6-(3-formyl-4-hydroxy-5-methoxystyryl)-3,4-dihydroquinoline-1(2H)-carboxylate] were 0.9 µM and 2.3 µM.
Turning to `O=Cc1cc(/C=C\c2ccc(N3CCCC3)cc2)cc(F)c1O` [compound 50, (Z)-3-fluoro-2-hydroxy-5-(4-(pyrrolidin-1-yl)styryl)benzaldehyde], the IC50 stood at 6.7 µM in test [1] and 10 µM in test [2].
Taken in the same sequence, the figures for `O=Cc1cc(/C=C/c2ccc3c(c2)OCCO3)cc(F)c1O` [compound 39, (E)-5-(2-(2,3-dihydrobenzo[b][1,4]dioxin-6-yl)vinyl)-3-fluoro-2-hydroxybenzaldehyde] were 15.4 µM and 12.8 µM.
In the same order, the values of `Oc1c(F)cc(/C=C/c2ccc(N3CCCC3)cc2)cc1/C=N/c1ccccc1` [compound 78, 2-fluoro-6-((E)-(phenylimino)methyl)-4-((E)-4-(pyrrolidin-1-yl)styryl)phenol] are 0.9 µM and 1 µM.
Taken in the same sequence, the figures for `COc1cc(/C=C/c2cccc(N3CCOCC3)c2)cc(C=O)c1O` [compound 44, (E)-2-hydroxy-3-methoxy-5-(3-morpholinostyryl)benzaldehyde] were 3.2 µM and 3 µM.
In the case of `COc1cc(/C=C/c2cc(F)cc(F)c2)cc(C=O)c1O` [compound 5, (E)-5-(3,5-difluorostyryl)-2-hydroxy-3-methoxybenzaldehyde], the IC50 was 3.2 µM in test [1] and 4 µM in test [2].
Take `O=Cc1cc(/C=C\c2ccc(N3CCOCC3)cc2)cc(F)c1O` [compound 43, (Z)-3-fluoro-2-hydroxy-5-(4-morpholinostyryl)benzaldehyde]: the IC50 is 40.7 µM in test [1] and 32.8 µM in test [2].
As to `N=C(N)N/N=C/c1cc(/C=C/c2ccc(N3CCCC3)cc2)cc(F)c1O` [compound 83, 2-((E)-3-fluoro-2-hydroxy-5-((E)-4-(pyrrolidin-1-yl)styryl)benzylidene)hydrazine-1-carboximidamide], the IC50 in test [1] amounted to 88.9 µM; in test [2], 36.7 µM.
Regarding `Cc1ccc(/C=C/c2ccc(O)c(C=O)c2)cn1` [compound 21, (E)-2-hydroxy-5-(2-(6-methylpyridin-3-yl)vinyl)benzaldehyde], the IC50 in test [1] turned out to be 57.3 µM; in test [2], 40 µM.
Turning to `O=S(=O)(N/N=C/c1cc(/C=C/c2ccc(N3CCCC3)cc2)cc(F)c1O)c1ccccc1` [compound 81, N′-((E)-3-fluoro-2-hydroxy-5-((E)-4-(pyrrolidin-1-yl)styryl)benzylidene)benzenesulfonohydrazide], the IC50 came to 13.2 µM in test [1] and 16.4 µM in test [2].
In the same order, the values of `COc1cc(/C=C/C(=O)N2CCOCC2)cc(C=O)c1O` [compound 35, (E)-2-hydroxy-3-methoxy-5-(3-morpholino-3-oxoprop-1-en-1-yl)benzaldehyde] are 62.6 µM and 68.5 µM.
In the same order, the values of `Oc1c(F)cc(/C=C/c2ccc(N3CCCC3)cc2)cc1/C=N/Oc1ccccc1` [compound 82, (E)-3-fluoro-2-hydroxy-5-((E)-4-(pyrrolidin-1-yl)styryl)benzaldehyde O-phenyl oxime] are 2.1 µM and 2.1 µM.
